Experimental data: patent publication US5204336A, “Naphthyl-,tetrahydronaphthyl-, and indanyl-substituted G-em-diphosphonates and process of use to treat hyperlipidemia” (Symphar S.A., priority 1992, dated 1993)

System: peroxide produced in rat liver homogenates
Assay: Antioxidant activity: FeSO4-generated peroxides in rat liver homogenate, thiobarbituric acid reaction
Format: biochemical
Settings: rat liver homogenate incubated with FeSO4, thiobarbituric acid reaction; read-out: IC50, antioxidant activity (peroxide production)
Method: Rat liver homogenates were prepared according to Fraga, C. G. et al. Free Radicals Biol. Med., 4, 155, 1988 and Kornburst D. J. et al. Lipids 15, 315, 1980.
Peroxides were generated by incubation of the homogenate with the FeSO4 as described by Quitanilha A. T. et al. Ann. N.Y., Acad. Sci. 393, 32, 1982.
Compounds to be tested for their antioxidant activity were dissolved in DMSO and added to the incubation mixture. The amount of peroxide produced was determined by the thiobarbituric acid reaction using malonaldehyde as standard.

Row | Compound | IC50
1 | CCOP(=O)(OCC)C(=Cc1cc(C(C)(C)C)c(O)c2c1CCCC2)P(=O)(OCC)OCC [Example 6, Tetraethyl 2-(3-tert-butyl-4-hydroxy-5,6,7,8-tetrahydronaphthyl)-ethenylidene-1,1-diphosphonate] | 7000 nM
2 | CC(C)OP(=O)(OC(C)C)C(=Cc1cc(C(C)(C)C)c(O)c2c1CCCC2)P(=O)(OC(C)C)OC(C)C [Example 8, Tetraispropyl 2-[3-tert-butyl-4-hydroxy-5,6,7,8-tetrahydronaphthyl]-ethenylidene-1,1-diphosphonate] | 2500 nM
3 | CCOP(=O)(OCC)C(=Cc1cc(C(C)(C)C)c(O)c2ccccc12)P(=O)(OCC)OCC [Example 1] | 1500 nM
4 | CC(C)OP(=O)(OC(C)C)C(=Cc1cc(C(C)(C)C)c(O)c2ccccc12)P(=O)(OC(C)C)OC(C)C [Example 2] | 700 nM
